Source: patent US20080305536A1, “Method for Culturing Microorganisms” (priority 2005, published 2008)

System: NCIMB 11955
Conditions: USM, 1% glucose, 60° C., 250 rpm, grown for 36 hours; flasks with 0, 1, 2, 3 or 4% ethanol; FIG. 1
Description: Ethanol tolerance of a wild-type organism (NCIMB 11955) was tested in order to determine the starting point. The organism was grown overnight (LB agar plate, 60° C.) and a colony used to inoculate an overnight culture (100 mL USM, 1% glucose, 60° C., 250 rpm). This culture was then used to inoculate a triplicate series of flasks containing 0, 1, 2, 3, or 4% ethanol which were then grown for 36 hours before the growth was measured (50 mL USM, 1% glucose, 60° C., 250 rpm).

SMILES: CCO [ethanol]
- ethanol concentration tolerated (growth measured): ≤ 4%
